Source: the pKa sets of Baltruschat and Czodrowski (2020)

Conditions: acidic group

| Structure (SMILES) | pKa |
| --- | --- |
| Cc1cc(C)nc([N-]S(=O)(=O)c2ccc(O)cc2)n1 | 9.16 |
| CC1(C)CC(=O)CC(=O)C1 | 5.21 |
| C[n+]1ccn(CCC[n+]2ccc(/C=N/O)cc2)c1 | 8.05 |
| ONc1cc[n+](O)c2ccccc12 | 3.89 |
| O=C(O)c1c(Br)cccc1[N+](=O)[O-] | 1.37 |
| C=C[C@]1(O)C[NH+]2CC[C@H]1C[C@H]2[C@H](O)c1cc(O)[nH+]c2ccccc12 | 2.76 |
| COc1ccc(C(=O)O)c(C)c1 | 4.54 |
| COc1cccc(=O)c(O)c1 | 7.24 |
| COC(=O)c1cccc(NC=S)c1 | 10.8 |
| CC(O)(C(=O)O)c1ccccc1 (configuration not stated) | 3.53 |
| CC(=O)[n+]1cccc(Cl)c1 | 2.98 |
| O=C(O)CSc1ccc([N+](=O)[O-])cc1 | 3.2 |
| Cn1cc([NH3+])cc1C(=O)O | 3.5 |
| CSc1nc(N)c2[nH]cnc2n1 | 10.2 |
| Brc1nnn[nH]1 | 2.13 |
| O=C1O[C@@H]([C@@H](O)CO)C(O)=C1O | 4.16 |
| CCCCCCCc1c(-c2ccccc2)nn(-c2ccccc2)c1O | 8 |
| OC(c1ccccc1)(c1ccncc1)c1ccncc1 | 13.1 |
| CSc1nc2cc3c(cc2[nH]1)CCCC3 | 13 |
| O=C(O)[C@H]1O[C@H]1C(=O)[O-] | 3.92 |
| O=C(O)C(c1ccc(C2CCCCC2)cc1)C(O)c1ccccc1 (configuration not stated) | 4.24 |
| CC1=CC(=O)C(C(C)C)=C/C1=N/c1ccc(O)cc1 | 8.8 |
| OC(c1ccncc1)(c1ccncc1)c1cccnc1 | 11.9 |
| CCOC(=O)c1ccc(O)c([N+](=O)[O-])c1 | 5.44 |

| Structure (SMILES) | pKa |
| --- | --- |
| NCCc1ccc(O)c(O)c1 | 10.6 |
| C[Se](=O)O | 5.19 |
| Cc1ccccc1[Se]CC(=O)O | 3.79 |
| O=S(Cc1ccccc1)c1cnn[nH]1 (configuration not stated) | 6.09 |
| NC(=O)[C@@H](N)CSSC[C@H](N)C(N)=O | 6.41 |
| CC(I)C(=O)O (configuration not stated) | 3.21 |
| CCCC(O)C(C(=O)O)c1ccc(-c2ccccc2)cc1 (configuration not stated) | 4.01 |
| Cc1nccc2c1[nH]c1cc(O)ccc12 | 9.47 |
| O=c1ccc2cc(O)c(O)cc2o1 | 7.63 |
| O=c1ccccc(O)c1[O-] | 11.5 |
| O=C(O)C1(O)CCCCC1 | 4.18 |
| C=CC(=O)O | 4.25 |
| Cc1ccc2ccc(O)cc2c1 | 9.52 |
| Cc1ccc(NN=C(C#N)C#N)cc1 | 6.75 |
| Cc1noc(NS(=O)(=O)c2ccc(N)cc2)c1C | 4.16 |
| NC(Cc1c[nH]c(=S)[nH]1)C(=O)[O-] (configuration not stated) | 11.4 |
| Cc1cc(C(C)C)ccc1O | 10.6 |
| CC(C)Oc1cccc(C(=O)O)c1 | 4.15 |
| Sc1ccc(Br)cc1 | 5.8 |
| O=C(O)c1csc2ccccc12 | 4.24 |
| Nc1c2ccccc2[nH+]c2ccc(O)cc12 | 7.71 |
| N#Cc1cccc(NS(=O)(=O)c2ccccc2)c1 | 7.15 |
| NC(=O)CS(=O)(=O)NC(N)=O | 5.05 |
| O=C(O)C1(C(=O)O)CC1 | 1.92 |

| Structure (SMILES) | pKa |
| --- | --- |
| O=C(O)C#COc1ccccc1 | 3.09 |
| Cc1cccnc1/C=N/O | 10.5 |
| CC(=O)[n+]1ccc(C)cc1 | 6.15 |
| O=C(O)c1cnc(Cl)s1 | 3 |
| Cc1ccc(S(=O)(=O)N(CC[NH2+]CC(=O)O)CC(=O)O)cc1 | 1.99 |
| NC(=O)Nc1[nH]c[nH+]c1C(=O)O | 2 |
| O=Cc1cccc(Cl)c1O | 6.61 |
| Fc1ccc(NC(=S)c2ccccc2)cc1 | 10.8 |
| COc1cccc(OC)c1-c1nc2cnccc2[nH]1 | 10.9 |
| c1cc(-c2nn[nH]n2)cc(-c2nnn[nH]2)c1 | 3.38 |
| O=[N+]([O-])c1cccc(/C=N/O)c1 | 10.2 |
| Sc1cc[nH+]cc1 | 1.43 |
| Nc1ncccc1O | 9.5 |
| NC(=O)/C(=N\O)c1ccccc1 | 10.1 |
| CC(=O)c1ccc(O)c(=O)cc1 | 5.01 |
| S=C1NCCO1 | 11.1 |
| CC[NH+](CC)Cc1cc(Cl)ccc1O | 8.11 |
| Cc1ccc(C(=O)c2cc[nH]n2)cc1 | 12 |
| N#CC(C#N)C(C#N)C#N | 3.6 |
| CC(C)CP(=O)(O)CC(C)C | 3.25 |
| Cc1ccc(C(=O)O)cc1O | 4.32 |
| Oc1ccc2c(c1)Cc1ccccc1-2 | 9.51 |

Same assay, conditions: basic group

| Structure (SMILES) | pKa |
| --- | --- |
| CSC(=N)N | 9.83 |
| C1N2CN3CN1CN(C2)C3 | 4.95 |
| C[NH+](C)CCCNc1c2ccccc2nc2cccc([N+](=O)[O-])c12 | 6.2 |
| N=C(Nc1ccccc1)Nc1ccccc1 | 9.94 |
| NNC(=O)c1ccc([NH3+])cc1 | 2.05 |
| CC12CN3CC(C)(C1)CC(C)(C3)C2 | 10.7 |
| N/C(CC([NH3+])c1ccccc1)=N\O (configuration not stated) | 3.75 |
| Cc1ccccc1-n1nnnc1N | 1.23 |
| Cc1cc(N)nc(Nc2ccc(Cl)cc2)n1 | 6.6 |
| Cn1c2ccccc2c(=N)c2ccccc21 | 11 |
| COC1=CC=C2[C@@H]3Cc4ccc(OC)c5c4[C@]2(CCN3C)[C@@H]1O5 | 8.15 |
| CC(C)NNC1CCN(C)CC1 | 9.07 |
| Nc1cc[nH+]c([S-])n1 | 3.32 |
| COCc1nc(C)c[nH]1 | 7.03 |
| O=C(Cc1cnccn1)c1ccccc1 | 0.33 |
| Cn1ccnc1 | 7.15 |
| Cc1ccccc1/C(=N\CCC[NH+](C)C)c1cccc2ccccc12 | 4.14 |
